Experimental data: patent publication US20220170949A1, “SYSTEM AND METHOD FOR DETECTING THERAPEUTIC AGENTS TO MONITOR ADHERENCE TO A TREATMENT REGIMEN” (ORASURE TECHNOLOGIES, INC., priority 2019, published 2022)
Where two headings read alike, the source gives them in different places.

Legend:
[1] = tested on: HIV; conditions: PBMCs (Anderson 2012); cited from earlier work
[2] = in vivo; cited from earlier work
[3] = tested on: HIV-1; conditions: cited from earlier work
[4] = in vivo, po
Text: Antiretroviral concentrations in whole blood or plasma are potentially useful in monitoring adherence to PrEP.

CC(Cn1cnc2c(N)ncnc21)OCP(=O)(O)OP(=O)(O)OP(=O)(O)O (stereo in doubt) [tenofovir-diphosphate]
intracellular concentration associated with a 90% reduction in HIV acquisition relative to the placebo arm [1]: 16 fmol per million peripheral blood mononuclear cells (PBMCs)

C[C@H](Cn1cnc2c(N)ncnc21)OCP(=O)(O)O [Tenofovir]
intracellular half-life [2]: 150 h
plasma half-life [2]: 17 h
HIV-1 risk reduction corresponding to intracellular tenofovir concentrations ([3]; 2 doses per week): 76%
HIV-1 risk reduction corresponding to intracellular tenofovir concentrations ([3]; 4 doses per week): 96%
HIV-1 risk reduction corresponding to intracellular tenofovir concentrations ([3]; 7 doses per week): 99%
window of medication usage reflected by TFV detection in whole blood or plasma [4]: one to at least seven days
